Test results as given in patent US11672790B2, “Methods of managing conditioned fear with neurokinin receptor antagonists” (Emory University, priority 2014, dated 2023).
Entries after “also recorded” stand apart in the source; their conditions may differ.

Tests used:
[1] = molecular target: T1, CeA-NK3R (Mus musculus, UniProt P47937); experiment: Osanetant bilaterally injected into the central amygdala, cued-fear expression test; type: in vivo, mice; conditions: bilateral infusion in the CeA immediately after fear conditioning; vs vehicle
T1 construct: from tissue; host or cells: central amygdala of living mice (in vivo infusion)
T1 sequence (P47937 1-452): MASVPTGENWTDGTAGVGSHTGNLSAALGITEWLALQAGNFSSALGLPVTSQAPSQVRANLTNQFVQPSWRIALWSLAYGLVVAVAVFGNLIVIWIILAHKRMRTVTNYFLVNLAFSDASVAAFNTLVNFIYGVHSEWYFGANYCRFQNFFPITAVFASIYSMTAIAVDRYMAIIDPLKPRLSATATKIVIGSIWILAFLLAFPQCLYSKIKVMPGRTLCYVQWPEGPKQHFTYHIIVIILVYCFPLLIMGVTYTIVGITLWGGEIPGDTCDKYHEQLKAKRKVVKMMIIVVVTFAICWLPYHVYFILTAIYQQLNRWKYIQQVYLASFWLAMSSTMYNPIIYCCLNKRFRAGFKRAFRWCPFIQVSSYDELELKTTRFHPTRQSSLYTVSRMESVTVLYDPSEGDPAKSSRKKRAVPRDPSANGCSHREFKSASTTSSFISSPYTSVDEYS
Excerpt: (§1) Recently, the PACAP-PAC1R pathway has been associated with PTSD in humans as well as in animal models. (See Stevens et al., 2014).

[2] = tested on: mice; experiment: Open field, systemic osanetant 30 minutes before; type: in vivo; conditions: 30 minutes before open field
Protocol: (§2) Different cohorts of mice received systemic osanetant 30 minutes before open field, elevated plus maze or fear conditioning in the startle chamber.
(§3) The above studies indicate that osanetant would target the Nk3R in the amygdale in vivo. Osanetant given systemically, 30 minutes before open field, elevated plus maze and the conditioning chamber elicits no changes in anxiety-like behavior, locomotor activity or electric shock reactivity.

[3] = tested on: Pac1 receptor (Adcyap1r1); experiment: Adcyap1r1 (PAC1 receptor) mRNA levels in the amygdala after fear conditioning; type: in vivo, mice; conditions: intraperitoneally 30 minutes before fear conditioning, vs Veh-FC
Excerpt: The PACAP-PAC1R pathway is associated with PTSD, fear conditioning and stress.
as §1

[4] = tested on: IMO treated mice; experiment: Fear conditioning after immobilization to a wooden board (IMO), PTSD-like model; type: in vivo; conditions: systemic immediately after FC
Protocol: Veh=vehicle; Osa=osanetant.
Mice exposed for 2 hours to a severe one-time stressor, immobilization to a wooden board (IMO), present long-term PTSD-like symptoms: impaired fear extinction and spatial memory, and enhanced anxiety-like behaviors. Additionally, IMO in rats elicits alterations of the hypothalamic-pituitary-adrenal (HPA) axis which may be similar to the process initiating PTSD in humans.

[5] = tested on: mice; experiment: Fear conditioning in mice with LV-Tac2 or LV-GFP infused in the central amygdala, systemic osanetant; type: in vivo; conditions: systemic immediately after FC, tested 24 hours later
Excerpt: The lentivirus GFP-FUGW induces GFP expression but not Neurokinin B (NkB) in Hek293 cells. […] Tac2-FUGW or GFP-FUGW were bilaterally infused in the central amygdala and mice were left undisturbed for 14 days.
The lentiviruses GFP-FUGW and Tac2-FUGW causes no changes in fear conditioning. Osanetant or vehicle were given systemically immediately after fear acquisition.
A viral vector was developed to overexpress the Tac2 gene in an inducible fashion within the brain, the lentivirus-Tac2 (LV-Tac2). […] The behavioral effects of Tac2 overexpression was examined in mice. […] Mice infected with the LVTac2 or LV-GFP received systemic osanetant or vehicle immediately after FC, and then fear expression was tested 24 hours later. Specific CeA-Tac2 overexpression elicited a significant enhancement of fear memory consolidation. […] Additionally, the enhanced fear memory consolidation caused by CeA-Tac2 overexpression was reversed by osanetant (Post-hoc, **P≤0.01 vs LV-Tac2-Osa and LV-GFP-Osa FIG. 4D).

[6] = tested on: mice; experiment: Shock reactivity in the startle chamber; type: in vivo; conditions: systemic, 30 minutes before testing in the startle chamber
Protocol: as §2, §3

[7] = tested on: mice; experiment: Elevated plus maze, systemic osanetant 30 minutes before; type: in vivo; conditions: 30 minutes before elevated plus maze
Protocol: as §2
FIG. 6C time in open arms,
FIG. 6D entries in open arms, and
FIG. 6E time in closed arms in the elevated plus maze.
as §3

[8] = tested on: mice; experiment: Auditory cued fear conditioning and fear expression test, systemic osanetant; type: in vivo; conditions: dosed from 30 min before FC up to 1 hour after training; for fear memory consolidation, freezing in the fear expression test: vs vehicle
[9] = molecular target: T2, Nk3R (Mus musculus, UniProt P47937); experiment: Amygdala cell culture incubated with osanetant, Nk3R mRNA levels; type: cell-based; conditions: incubation with 20 μg and 40 μg of osanetant, vs Veh
T2 construct: endogenous in cells; host or cells: mouse amygdala cell culture (primary)
T2 sequence (P47937 1-452): T1 sequence (P47937 1-452)
Excerpt: Moreover, NkB peptide is also highly expressed in the CeA. […] The Nk3R antagonist osanetant has already been used in humans in clinical trials for schizophrenia.

[10] = tested on: guinea-pigs; conditions: cited from earlier work
[11] = tested on: Tac2-expressing neurons in the CeA; experiment: Gi-DREADD silencing of Tac2-expressing CeA neurons with CNO, fear conditioning and elevated plus maze; type: in vivo, mice
Protocol: Tac2-Cre^− or Tac2-Cre^+ mice were infected with the hM4Di-mCherry AAV in the CeA. The Gi receptor was inserted only on the Tac2-Cre cells of Tac2-Cre+mice, CeM=centro-medial amygdala, CeL=centro-lateral amygdala. CNO was given systemically 30 minutes prior to fear conditioning to Tac2-Cre-/hM4Di-mCherry and Tac2 Cre+/hM4DimCherry. […] Tac2-Cre-/hM4DimCherry vs Tac2-Cre+/hM4Di-mCherry. Tac2-Cre-/hM4Di-mCherry and Tac2-Cre+/hM4Di-mCherry mice were retrained to a different acoustic tone (CS) without receiving CNO.
To further understand the role of the Tac2 gene, the activity of neurons expressing this gene in the CeA were temporarily silenced during fear learning using designer receptors exclusively activated by designer drugs (DREADD) technology. The B6.129-Tac2tm1.1(cre) Qima/J (Tac2-cre) (Mar et al., Mol. Brain, 2012, 5, 3) mice were infected with a DREADD Gi-coupled receptor via the pAAV-hSyn-double floxed hM4D-mCherry virus (hM4Di-mCherry AAV). […] 14 days later, clozapine-N-oxide (CNO), which binds to the inserted receptor but otherwise is pharmacologically inert, was given systemically 30 minutes before FC in both groups, Tac2-Cre-/hM4Di-mCherry and Tac2-Cre+/hM4Di-mCherry. CNO had no effect on fear acquisition as shown by equivalent amount of freezing in both groups (FIG. 5A). […] Mice were then retrained with a different CS and a different context in the same FC apparatus, as in previous experiments but without dosing CNO.

## CC(=O)N(C)C1(c2ccccc2)CCN(CCC[C@]2(c3ccc(Cl)c(Cl)c3)CCCN(C(=O)c3ccccc3)C2)CC1 [osanetant, (R)-N-{{3-[1-Benzoyl-3-(3,4-dichlorophenyl)piperidin-3-yl]prop-1-yl}-4-phenylpiperidin-4-yl}-N-methylacetamine]
[1]
  fear memory consolidation, freezing in the cued-fear expression test: impaired fear memory consolidation
[2]
  anxiety-like behavior, time in the center of the open field: no effects
  locomotor activity, distance travelled in the open field: no effects; also recorded: equivalent distance travelled
[2]; listed as Osanetant
  anxiety-like behavior, time in the center of the open field: no changes; also recorded: did not modified anxiety-like behavior
  locomotor activity, distance travelled in the open field: no changes
[3]
  Adcyap1r1 (PAC1 receptor) mRNA levels in the amygdala: impaired the enhancement of mRNA levels
[3]; listed as Osanetant
  Adcyap1r1 (PAC1 receptor) mRNA levels in the amygdala: normalizes the levels; also recorded: prevented the up-regulation
[4]
  fear memory consolidation, freezing in the fear expression test: impaired memory consolidation
[4]; listed as Osanetant
  fear memory consolidation, freezing in the fear expression test: impaired fear memory consolidation
[5]; LV-Tac2 mice
  enhanced fear memory consolidation caused by CeA-Tac2 overexpression: reversed; also recorded: impairs this effect
[5]; control LV-GFP mice, vs LV-GFP-Veh
  fear memory consolidation: impaired fear memory consolidation
[6]
  electric shock reactivity: no effects; also recorded: Equivalent shock reactivity
[6]; listed as Osanetant
  electric shock reactivity: no changes
[7]
  anxiety-like behavior in the elevated plus maze (time in open arms, entries in open arms, time in closed arms): no effects
[7]; listed as Osanetant
  anxiety-like behavior in the elevated plus maze (time in open arms, entries in open arms, time in closed arms): no changes; also recorded: did not modified anxiety-like behavior
[8]
  fear acquisition: does not affect fear acquisition
  fear memory consolidation, freezing in the fear expression test: impairs fear memory consolidation; also recorded: impairs fear learning
[8]; listed as Osanetant
  fear acquisition: without affecting fear expression
  fear memory consolidation, freezing in the fear expression test: impairs cued-fear memory; also recorded: impairs fear memory consolidation
[9]
  Nk3R mRNA levels: dose-dependent enhanced Nk3R mRNA levels; also recorded: enhances Nk3R mRNA levels; also recorded: increases Nk3R mRNA levels
[10]
  substance P-induced bronchial hyperreactivity: prevents

## C[N+]1([O-])CCN(C2=Nc3cc(Cl)ccc3Nc3ccccc32)CC1 [CNO, clozapine-N-oxide]
[11]; CNO 30 minutes before, both Tac2-Cre groups
  anxiety-like behavior, elevated plus maze: equivalent levels; also recorded: no effect
[11]; CNO systemically 30 minutes before FC, Tac2-Cre-/hM4Di-mCherry and Tac2-Cre+/hM4Di-mCherry
  fear acquisition, freezing: no effect; also recorded: did not affect freezing during fear acquisition
[11]; Tac2-Cre+/hM4Di-mCherry vs Tac2-Cre-/hM4Di-mCherry, CNO 30 minutes before FC
  fear expression, freezing 24 hrs later in the absence of CNO: less freezing; also recorded: less conditioned fear
[11]; given CNO, both Tac2-Cre groups
  pain sensitivity: equivalent levels
